Several values for one entry are separate records, joined by “and”; a condition that tells them apart may be missing. Equal values may be shown once. Read-outs that look alike come from different tables or passages of the source.
Experiments:
[1] = system: DiMT protein; assay type: biochemical, Dirofilaria immitis; details: for IC50: read-out: IC 50 (μM ± SEM)
[2] = system: D. immitis microfilariae; test: In vitro efficacy against live D. immitis microfilariae (motility, completely immotile %); assay type: cell-based, Dirofilaria immitis; details: for Completely Immotile Microfilariae (%): single replicate; for effect on microfilariae: up to 120 h of culture

Compound: O=c1c(O)cccc2cc(O)c(O)c(O)c12 [NSC35676]
- Mean Percent Inhibition (single experiments) ([1]; 15 µM): 41.9 and 44.3 and 44.1
- Mean Percent Inhibition, Average ([1]; 15 µM): 43.4
- Mean Percent Inhibition (single experiments) ([1]; 25 µM): 45.9 and 51.6 and 47.0
- Mean Percent Inhibition, Average ([1]; 25 µM): 48.2
- Mean Percent Inhibition (single experiments) ([1]; 50 µM): 62.0 and 58.4 and 60.6
- Mean Percent Inhibition, Average ([1]; 50 µM): 60.4
- Mean Percent Inhibition (single experiments) ([1]; 75 µM): 63.8 and 67.9 and 65.4
- Mean Percent Inhibition, Average ([1]; 75 µM): 65.7
- Mean Percent Inhibition (single experiments) ([1]; 100 µM): 68.1 and 72.1 and 71.2
- Mean Percent Inhibition, Average ([1]; 100 µM): 70.5
- IC50 [1]: 25.2 ± 1.4 µM
- Mean completely Immotile (%) ([2]; 25 µM, 0 h): 0%
- Completely Immotile Microfilariae (%) ([2]; 25 µM, 0 h): 0%
- Mean completely Immotile (%) ([2]; 25 µM, 24 h): 1%
- Completely Immotile Microfilariae (%) ([2]; 25 µM, 24 h): 0% and 1% and 2%
- Mean completely Immotile (%) ([2]; 25 µM, 48 h): 3%
- Completely Immotile Microfilariae (%) ([2]; 25 µM, 48 h): 2% and 3% and 4%
- Mean completely Immotile (%) ([2]; 25 µM, 72 h): 4.33%
- Completely Immotile Microfilariae (%) ([2]; 25 µM, 72 h): 4% and 3% and 6%
- Mean completely Immotile (%) ([2]; 25 µM, 96 h): 5.67%
- Completely Immotile Microfilariae (%) ([2]; 25 µM, 96 h): 5% and 4% and 8%
- Mean completely Immotile (%) ([2]; 25 µM, 120 h): 9.33%
- Completely Immotile Microfilariae (%) ([2]; 25 µM, 120 h): 7% and 6% and 15%
- Mean completely Immotile (%) ([2]; 75 µM, 0 h): 0%
- Completely Immotile Microfilariae (%) ([2]; 75 µM, 0 h): 0%
- Mean completely Immotile (%) ([2]; 75 µM, 24 h): 2.33%
- Completely Immotile Microfilariae (%) ([2]; 75 µM, 24 h): 1% (2×) and 5%
- Mean completely Immotile (%) ([2]; 75 µM, 48 h): 4.33%
- Completely Immotile Microfilariae (%) ([2]; 75 µM, 48 h): 4% and 3% and 6%
- Mean completely Immotile (%) ([2]; 75 µM, 72 h): 9%
- Completely Immotile Microfilariae (%) ([2]; 75 µM, 72 h): 10% and 8% and 9%
- Mean completely Immotile (%) ([2]; 75 µM, 96 h): 12%
- Completely Immotile Microfilariae (%) ([2]; 75 µM, 96 h): 12% and 11% and 13%
- Mean completely Immotile (%) ([2]; 75 µM, 120 h): 15.67%
- Completely Immotile Microfilariae (%) ([2]; 75 µM, 120 h): 15% and 13% and 19%
- Mean completely Immotile (%) ([2]; 125 µM, 0 h): 0%
- Completely Immotile Microfilariae (%) ([2]; 125 µM, 0 h): 0%
- Mean completely Immotile (%) ([2]; 125 µM, 24 h): 4.33%
- Completely Immotile Microfilariae (%) ([2]; 125 µM, 24 h): 3% and 4% and 6%
- Mean completely Immotile (%) ([2]; 125 µM, 48 h): 6%
- Completely Immotile Microfilariae (%) ([2]; 125 µM, 48 h): 5% and 4% and 9%
- Mean completely Immotile (%) ([2]; 125 µM, 72 h): 12.33%
- Completely Immotile Microfilariae (%) ([2]; 125 µM, 72 h): 12% and 10% and 15%
- Mean completely Immotile (%) ([2]; 125 µM, 96 h): 20.33%
- Completely Immotile Microfilariae (%) ([2]; 125 µM, 96 h): 16% and 15% and 30%
- Mean completely Immotile (%) ([2]; 125 µM, 120 h): 18.67%
- Completely Immotile Microfilariae (%) ([2]; 125 µM, 120 h): 19% and 15% and 22%
- Mean completely Immotile (%) ([2]; 200 µM, 0 h): 0%
- Completely Immotile Microfilariae (%) ([2]; 200 µM, 0 h): 0%
- Mean completely Immotile (%) ([2]; 200 µM, 24 h): 5%
- Completely Immotile Microfilariae (%) ([2]; 200 µM, 24 h): 5% and 4% and 6%
- Mean completely Immotile (%) ([2]; 200 µM, 48 h): 7.33%
- Completely Immotile Microfilariae (%) ([2]; 200 µM, 48 h): 5% and 6% and 11%
- Mean completely Immotile (%) ([2]; 200 µM, 72 h): 13.33%
- Completely Immotile Microfilariae (%) ([2]; 200 µM, 72 h): 15% and 13% and 12%
- Mean completely Immotile (%) ([2]; 200 µM, 96 h): 18.67%
- Completely Immotile Microfilariae (%) ([2]; 200 µM, 96 h): 20% and 19% and 17%
- Mean completely Immotile (%) ([2]; 200 µM, 120 h): 23%
- Completely Immotile Microfilariae (%) ([2]; 200 µM, 120 h): 23% and 22% and 24%
- effect on microfilariae [2]: insignificant effect

Compound: COc1ccc(-c2c(C)c(C(=O)O)nc(-c3ccc4c(O)c(OC)c5c(c4n3)=NC(C)(C)N=5)c2N)c(O)c1OC [NSC62709]
- Mean Percent Inhibition ([1]; 40 µM): 32.1% and 22.9% and 27.7%
- Mean Percent Inhibition, Average ([1]; 40 µM): 27.6%
- Mean Percent Inhibition ([1]; 80 µM): 63.8% and 49.7% and 46.2%
- Mean Percent Inhibition, Average ([1]; 80 µM): 53.2%
- Mean Percent Inhibition ([1]; 120 µM): 65.7% and 71.6% and 62.3%
- Mean Percent Inhibition, Average ([1]; 120 µM): 66.5%
- Mean Percent Inhibition ([1]; 140 µM): 72.8% and 64.4% and 72.4%
- Mean Percent Inhibition, Average ([1]; 140 µM): 69.9%
- Mean Percent Inhibition ([1]; 180 µM): 81.5% and 69.4% and 74.5%
- Mean Percent Inhibition, Average ([1]; 180 µM): 75.1%
- IC50 [1]: 76.2 ± 1.7 µM
- Mean completely Immotile (%) ([2]; 50 µM, 0 h): 0%
- Completely Immotile Microfilariae (%) ([2]; 50 µM, 0 h): 0%
- Mean completely Immotile (%) ([2]; 50 µM, 24 h): 1.67%
- Completely Immotile Microfilariae (%) ([2]; 50 µM, 24 h): 1% and 2% (2×)
- Mean completely Immotile (%) ([2]; 50 µM, 48 h): 3.33%
- Completely Immotile Microfilariae (%) ([2]; 50 µM, 48 h): 3% (2×) and 4%
- Mean completely Immotile (%) ([2]; 50 µM, 72 h): 5.67%
- Completely Immotile Microfilariae (%) ([2]; 50 µM, 72 h): 5% (2×) and 7%
- Mean completely Immotile (%) ([2]; 50 µM, 96 h): 7.33%
- Completely Immotile Microfilariae (%) ([2]; 50 µM, 96 h): 7% and 9% and 6%
- Mean completely Immotile (%) ([2]; 50 µM, 120 h): 14%
- Completely Immotile Microfilariae (%) ([2]; 50 µM, 120 h): 12% and 14% and 16%
- Mean completely Immotile (%) ([2]; 100 µM, 0 h): 0%
- Completely Immotile Microfilariae (%) ([2]; 100 µM, 0 h): 0%
- Mean completely Immotile (%) ([2]; 100 µM, 24 h): 3.67%
- Completely Immotile Microfilariae (%) ([2]; 100 µM, 24 h): 3% (2×) and 5%
- Mean completely Immotile (%) ([2]; 100 µM, 48 h): 7%
- Completely Immotile Microfilariae (%) ([2]; 100 µM, 48 h): 7% and 6% and 8%
- Mean completely Immotile (%) ([2]; 100 µM, 72 h): 9.33%
- Completely Immotile Microfilariae (%) ([2]; 100 µM, 72 h): 9% (2×) and 10%
- Mean completely Immotile (%) ([2]; 100 µM, 96 h): 12.33%
- Completely Immotile Microfilariae (%) ([2]; 100 µM, 96 h): 10% and 12% and 15%
- Mean completely Immotile (%) ([2]; 100 µM, 120 h): 17%
- Completely Immotile Microfilariae (%) ([2]; 100 µM, 120 h): 15% and 17% and 19%
- Mean completely Immotile (%) ([2]; 150 µM, 0 h): 0%
- Completely Immotile Microfilariae (%) ([2]; 150 µM, 0 h): 0%
- Mean completely Immotile (%) ([2]; 150 µM, 24 h): 4.67%
- Completely Immotile Microfilariae (%) ([2]; 150 µM, 24 h): 5% (2×) and 4%
- Mean completely Immotile (%) ([2]; 150 µM, 48 h): 8.67%
- Completely Immotile Microfilariae (%) ([2]; 150 µM, 48 h): 9% and 6% and 11%
- Mean completely Immotile (%) ([2]; 150 µM, 72 h): 12.33%
- Completely Immotile Microfilariae (%) ([2]; 150 µM, 72 h): 12% and 11% and 14%
- Mean completely Immotile (%) ([2]; 150 µM, 96 h): 14.67%
- Completely Immotile Microfilariae (%) ([2]; 150 µM, 96 h): 13% and 14% and 17%
- Mean completely Immotile (%) ([2]; 150 µM, 120 h): 21.33%
- Completely Immotile Microfilariae (%) ([2]; 150 µM, 120 h): 20% and 21% and 23%
- Mean completely Immotile (%) ([2]; 200 µM, 0 h): 0%
- Completely Immotile Microfilariae (%) ([2]; 200 µM, 0 h): 0%
- Mean completely Immotile (%) ([2]; 200 µM, 24 h): 6.67%
- Completely Immotile Microfilariae (%) ([2]; 200 µM, 24 h): 7% (2×) and 6%
- Mean completely Immotile (%) ([2]; 200 µM, 48 h): 10.67%
- Completely Immotile Microfilariae (%) ([2]; 200 µM, 48 h): 12% and 9% and 11%
- Mean completely Immotile (%) ([2]; 200 µM, 72 h): 14.33%
- Completely Immotile Microfilariae (%) ([2]; 200 µM, 72 h): 16% (2×) and 11%
- Mean completely Immotile (%) ([2]; 200 µM, 96 h): 18.67%
- Completely Immotile Microfilariae (%) ([2]; 200 µM, 96 h): 19% and 17% and 20%
- Mean completely Immotile (%) ([2]; 200 µM, 120 h): 25.33%
- Completely Immotile Microfilariae (%) ([2]; 200 µM, 120 h): 24% and 26% (2×)
- effect on microfilariae [2]: insignificant effect

Compound: COc1cc(C)c2c(c1C=O)Oc1c(c(C)c(O)c3c1C(O)OC3=O)OC2=O (centres unmarked) [NSC87511]
- IC50 [1]: 155 ± 2.2 µM
- effect on microfilariae [2]: insignificant effect

Compound: CO[C@@H]1[C@@H](OC(=O)c2ccc(C)[nH]2)[C@@H](O)[C@H](Oc2ccc3c(O)c(NC(=O)c4ccc(O)c(CC=C(C)C)c4)c(=O)oc3c2Cl)OC1(C)C [NSC227186]
- Mean Percent Inhibition ([1]; 10 µM): 25.0% and 23.9% and 30.2%
- Mean Percent Inhibition, Average ([1]; 10 µM): 26.4%
- Mean Percent Inhibition ([1]; 40 µM): 40.1% and 37.1% and 38.3%
- Mean Percent Inhibition, Average ([1]; 40 µM): 38.5%
- Mean Percent Inhibition ([1]; 70 µM): 40.5% and 43.1% and 39.6%
- Mean Percent Inhibition, Average ([1]; 70 µM): 41.1%
- Mean Percent Inhibition ([1]; 100 µM): 44.8% and 43.5% and 45.8%
- Mean Percent Inhibition, Average ([1]; 100 µM): 44.7%
- Mean Percent Inhibition ([1]; 130 µM): 46.6% and 49.3% and 48.1%
- Mean Percent Inhibition, Average ([1]; 130 µM): 48.0%
- Mean Percent Inhibition ([1]; 160 µM): 50.6% and 48.4% and 57.2%
- Mean Percent Inhibition, Average ([1]; 160 µM): 52.0%
